Experimental data from patent publication US6472369B1, “Anticancer compounds and methods” (The Regents of the University of Michigan, priority 1996, dated 2002).

What was measured:
[1] = Clotting of peptide-treated blood in vivo; settings: in vivo observation
Source text: In addition to using the PHSRN (SEQ ID NO:1) antagonists described above as anti-invasion chemotherapeutics, it is also contemplated that these antagonists be used as anti-thrombotics.

MatLyLu (MLL) tumors [2] = assay: MLL prostate tumor growth and metastasis in rats, treatment begun after 24 hours (Example 13); assay type: in vivo, Copenhagen rats
Experimental: In the first part of this example, 20 Copenhagen rats were injected with 500,000 MatLyuLu (MLL) cells subcutaneously in the thigh. To more closely approximate a real clinical situation, PHSCN (SEQ ID NO:86) peptide treatment of 10 of these rats was initiated after 24 hours, instead of immediately. The 10 treated rats (MLL/PHSCN (SEQ ID NO:86)) received a total of 5 i.v. injections of 1 mg of the PHSCN (SEQ ID NO:86) peptide through the tail vein over two weeks. Tumor sizes were measured with calipers on day 14, and the tumors in the untreated rats were removed. Since the injected tumors in the MLL/PHSCN (SEQ ID NO:86) rats were still small, they were retained in the rats for another 7 to 9 days following the last PHSCN (SEQ ID NO:86) injection. At this time, their sizes were all greater than 2 cm, and they were also removed.
In the second part of this example, the MLL/PHSCN (SEQ ID NO:86) rats received 2 more i.v. doses of the PHSCN (SEQ ID NO:86) peptide prior to sacrifice. Ten days after the sizes of the injected primary tumors were determined, all the rats in the two groups (MLL only and MLL/PHSCN (SEQ ID NO:86)) were sacrificed, and the number of lung metastases was determined at 7.5-fold magnification.
The 20 rats described in parts one and two of this example were also examined for metastatic tissues in […]. All of these metastases were dissected and weighed. FIG. 10C plots the mean masses of intraperitoneal metastases (grams) for the two groups of 10 rats. […] This may be due to the anti-angiogenic effect of the PHSCN (SEQ ID NO:86) peptide, as described in part one of this example. In this manner, the PHSCN (SEQ ID NO:86) peptide maybe an effective anti-metastatic, growth-inhibiting chemotherapeutic agent for use in the treatment of cancer.

MatLyLu (MLL) tumors [3] = assay: MLL prostate tumor growth and metastasis in rats, treatment begun with cell injection (Example 12); assay type: in vivo, Copenhagen rats
Experimental: In the first part of this example, four Copenhagen rats were injected with 500,000 MatLyLu (MLL) cells subcutaneously in the thigh. Two of these rats also received 1 mg of the PHSCN (SEQ ID NO:86) peptide along with the injected MLL cells, and thereafter received 1 mg of the PHSCN (SEQ ID NO:86) peptide injected in their tail vein three time per week for two weeks. The other two injected rats were left untreated. Tumor sizes were measured with calipers on day 14, and the tumors in the untreated rats were removed. […] It is possible that the ability of the PHSCN (SEQ ID NO:86) peptide to slow tumor growth is due to its inhibition of tumor invasion by normal endothelial cells, an anti-angiogenic effect.
Two weeks after the size of the tumors were measured, the rats were sacrificed and the mean number of lung metastases was determined at 10-fold magnification. The mean number of lung metastases in the untreated mice (MLL only) was nearly 35 in spite of the fact that the initial prostate tumors had been removed when their size was measured. The mean number of lung metastases in the treated mice (MLL +PHSCN (SEQ ID NO:86)) was less than 5, even though the initial prostate tumors were never removed because they were too small. […] In this manner, the PHSCN (SEQ ID NO:86) peptide provides effective in vivo therapy for cancer by preventing the lethal effects of tumor cell growth and metastasis.

[4] = test system: metastatic DU-145 prostate cancer cells; assay: SU-ECM invasion assay, DU-145 prostate cancer cells; assay type: cell-based, human; settings: for inhibition of serum-induced invasion of SU-ECM: DU-145, 10% serum, FIG. 6A; for inhibition of PHSRN-induced invasion of SU-ECM: DU-145, serum-free medium, 100 ng per ml PHSRN, FIG. 6B
[5] = test system: normal human prostate epithelial cells; assay: SU-ECM invasion assay, normal human prostate epithelial cells; assay type: cell-based; settings: 10% FCS, 100 ng per ml PHSRN, FIG. 6B
Experimental: Adult Strongylocentrotus purpuratus sea urchins were obtained from Pacific BioMarine, and their embryos were cultured to the early pluteus stage in artificial sea water at 15° C. SU-ECM were prepared from them by treatment with nonionic detergent and strerilized by dilution in the appropriate media. […]
Invasion assays were coded and scored blindly by microscopic examination under phase contrast at 200- and 400-fold magnification. Each cell contacting an SU-ECM was scored for its position relative to the exterior or interior surfaces. […] The minimum viability of the cells in each assay was always ascertained at the time of assay by determining the fraction of spread, adherent cells on the bottom of each well scored.
An invasion frequency is defined as the fraction of cells in contact with basement membranes which were located in their interiors at the time of assay. […] Invasion frequencies were determined multiple times for each cell type assayed. For each type of cell assayed the mean and standard deviation of the invasion frequencies were calculated. […]

## Pro-His-Ser-Cys-Asn (PHSCN)
[1]
  clotting of peptide-treated blood: clot very slowly
MatLyLu (MLL) tumors [2]; 7 to 9 days following the last PHSCN injection
  tumor size: greater than 2 cm
MatLyLu (MLL) tumors [2]; compared to untreated rats, 7.5-fold magnification, ten days after tumor sizing, FIG. 10B
  mean numbers of lung metastases: significant reduction
MatLyLu (MLL) tumors [2]; compared to untreated rats, FIG. 10C
  mean masses of intraperitoneal (lymphatic) metastases: significant reduction
MatLyLu (MLL) tumors [2]; day 14, 5 i.v. injections of 1 mg over two weeks, started after 24 hours, FIG. 10A
  growth of rat prostate cancer tumors (tumor size, calipers): substantially slows the growth
MatLyLu (MLL) tumors [3]; day 14, 1 mg with cells, then 1 mg tail vein three times per week for two weeks, FIG. 9A
  growth of injected MLL tumors (tumor size, calipers): significantly slows the growth
MatLyLu (MLL) tumors [3]; two weeks after tumor measurement, 10-fold magnification, primary tumors not removed, FIG. 9B
  mean number of lung metastases: less than 5
[4]; relatively high concentrations
  inhibition of serum-induced invasion of SU-ECM: complete inhibition
[4]; relatively low concentrations
  inhibition of serum-induced invasion of SU-ECM: substantial inhibitory affect
[4]; higher concentrations
  inhibition of PHSRN-induced invasion of SU-ECM: almost complete inhibition
[4]; low concentrations
  inhibition of PHSRN-induced invasion of SU-ECM: substantial inhibitory affect
[5]; higher concentrations
  inhibition of PHSRN-induced invasion of SU-ECM: almost complete inhibition
[5]; low concentrations
  inhibition of PHSRN-induced invasion of SU-ECM: substantial inhibitory affect
